Measured values reported in US20190040004A1, “NEW COMPOUNDS FOR THE TREATMENT AND/OR PREVENTION OF PARASITIC DISEASES AND METHOD OF PRODUCTION OF THEREOF” (INSTITUT DE RECHERCHE POUR LE DEVELOPPEMENT (I.R.D.), priority 2013, published 2019).
“Also recorded” adds a separate entry of the source. Read-outs that look alike come from different tables or passages of the source.

What was measured:
HFF cells = assay: MTT cytotoxicity on HFF host cells; type: cell-based
Procedure: (§1) Antiparasitic activity of a compound is represented by ICo50, which is calculated with Prism software (Prism4 for MacOSX Version 5.0b, December 2008). The cytoxicity of a compound against the host cells of L. infantum and T. gondii, such as THP-1 or HFF cells, was determined with a MTT assay, according to previously described protocol (Sereno et al., Antimicrob Agents Chemother. 2001, 45(4):1168-73). THP-1 is derived from the peripheral blood ofa human with acute monocytic leukemia.

[1] = system: Leishmania infantum luciferase expressing strain (MHOM/MA/ITMAP269); assay: microbe, parasite or virus in culture; type: cell-based; conditions: for IC50: Leishmania infantum, read-out: L. infantum IC50
Description: THP-1 is derived from the peripheral blood ofa human with acute monocytic leukemia.

THP-1 cells = assay: MTT cytotoxicity on THP-1 host cells; type: cell-based
Procedure: as §1

[2] = system: T1, HDAC activity from HELA nuclear extract; assay: Fluorimetric HDAC assay, HeLa nuclear extract; type: biochemical, human
T1 construct: HELA Nuclear extracts IC50; other: HeLa nuclear extract, fluorimetric HDAC kit; […]
Procedure: (§2) HDAC inhibitory activity was determined by a fluorimetric HDAC assay kit (Active-motif, Belgium), according to manufacturer's instructions. […] Fluorogenic substrate (10 μL) was added, reaction was allowed to proceed for 30 min at room temperature, then stopped by the addition of a developer containing Tichostatin A.

[3] = system: HDAC activity from HELA nuclear extract; assay: Fluorimetric HDAC assay, HeLa nuclear extract; type: biochemical, human; conditions: read-out: IC50 (better HDAC inhibitor among 9 tested compounds)
Procedure: as §2

[4] = system: T. gondii (GFP expressing parasites) in HFF; assay: T. gondii proliferation in human foreskin fibroblasts; type: cell-based, Toxoplasma gondii; conditions: for IC50: 24 h
Procedure: To assess the drug activity on toxoplasma proliferation, human foreskin fibroblasts (HFF) were infected with GFP expressing parasites for 30 mns (Striepen et al., Mol Biochem Parasitol. 1998, 92(2):325-38). Cells were then washed and drugs added at various concentrations ranging from 0.1 to 10 uM. After 24 h, cells were washed and fixed (PBS-formaldehyde 2%) and nucleus stained with Hoechst 33258 (2 μg/ml). The number of infected cells i.e cells harbouring a parasitophorous vacuole and the number of parasites per vacuole were determined using an Olympus ScanR microscope (Olympus).
as §1

recombinant HDAC6 = target: T2, recombinant HDAC6 (Homo sapiens, UniProt Q9UBN7); assay: Recombinant HDAC6 inhibition; type: biochemical
T2 sequence (Q9UBN7 1-1215): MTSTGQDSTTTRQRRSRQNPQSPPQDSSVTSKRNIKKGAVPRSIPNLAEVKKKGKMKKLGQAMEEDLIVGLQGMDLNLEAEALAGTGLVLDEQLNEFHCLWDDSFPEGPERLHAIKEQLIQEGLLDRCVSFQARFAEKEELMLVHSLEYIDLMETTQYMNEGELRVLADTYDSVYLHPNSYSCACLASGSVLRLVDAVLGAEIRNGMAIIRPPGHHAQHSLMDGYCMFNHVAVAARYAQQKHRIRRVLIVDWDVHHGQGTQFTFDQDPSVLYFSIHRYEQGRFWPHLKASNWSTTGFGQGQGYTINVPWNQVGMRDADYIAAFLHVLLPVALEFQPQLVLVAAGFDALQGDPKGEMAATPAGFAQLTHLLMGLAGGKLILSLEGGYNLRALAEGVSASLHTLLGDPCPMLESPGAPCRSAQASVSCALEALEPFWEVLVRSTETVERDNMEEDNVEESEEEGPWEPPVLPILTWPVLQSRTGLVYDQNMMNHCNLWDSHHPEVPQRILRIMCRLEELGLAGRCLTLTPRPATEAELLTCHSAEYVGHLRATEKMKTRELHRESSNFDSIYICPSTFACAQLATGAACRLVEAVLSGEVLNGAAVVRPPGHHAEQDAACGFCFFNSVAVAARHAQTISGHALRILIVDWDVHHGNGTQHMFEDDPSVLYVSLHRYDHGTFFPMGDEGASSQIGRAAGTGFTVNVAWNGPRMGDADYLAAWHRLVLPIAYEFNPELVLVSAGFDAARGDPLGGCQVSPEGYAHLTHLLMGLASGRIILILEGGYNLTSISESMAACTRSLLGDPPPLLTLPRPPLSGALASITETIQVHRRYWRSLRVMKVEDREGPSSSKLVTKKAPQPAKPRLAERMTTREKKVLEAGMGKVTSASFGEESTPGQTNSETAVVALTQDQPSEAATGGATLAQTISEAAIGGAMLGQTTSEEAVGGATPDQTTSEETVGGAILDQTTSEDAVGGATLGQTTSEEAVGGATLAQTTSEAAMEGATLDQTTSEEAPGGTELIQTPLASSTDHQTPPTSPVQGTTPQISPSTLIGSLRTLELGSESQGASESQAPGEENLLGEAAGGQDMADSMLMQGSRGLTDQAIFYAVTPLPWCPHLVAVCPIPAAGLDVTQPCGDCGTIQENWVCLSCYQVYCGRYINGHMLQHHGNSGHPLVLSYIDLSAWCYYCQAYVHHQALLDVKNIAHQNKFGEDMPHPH

[5] = system: type II Prugniaud parasites; assay: Type II Prugniaud Toxoplasma proliferation in HFF; type: cell-based, Toxoplasma gondii; conditions: 0.025 to 0.8 uM, 24 h
Procedure: (§3) To compare the activity of compounds according to the invention to that of prior art on toxoplasma proliferation, human foreskin fibroblasts (HFF) were plated in 96-wells plate (10 000 cells per well). Twenty-four hours later, cells were infected with 40 000 parasites, either RH-YFP type I or type II Prugniaud parasites or tachyzoites (kindly provided by B. Striepen, Athens) for one hour. Cells were then washed and drugs (compound D16 of formula
(§4) (FIG. 4 and FIG. 5) or compound according to the invention (363) (FIG. 6) added at various concentrations ranging from 0.025 to 0.8 uM. After 24 h, cells were washed and fixed (PBS-formaldehyde 2%) and nucleus stained with Hoechst 33258 (2 μg/ml). The number of infected cells ie. cells harbouring a parasitophorous vacuole and the number of parasites per vacuole was determined using an Olympus ScanR microscope (Olympus).

recombinant HDAC1 = recombinant HDAC1 (Homo sapiens, UniProt Q13547); assay: Recombinant HDAC1 inhibition; type: biochemical
Sequence of recombinant HDAC1 (Q13547 whole entry): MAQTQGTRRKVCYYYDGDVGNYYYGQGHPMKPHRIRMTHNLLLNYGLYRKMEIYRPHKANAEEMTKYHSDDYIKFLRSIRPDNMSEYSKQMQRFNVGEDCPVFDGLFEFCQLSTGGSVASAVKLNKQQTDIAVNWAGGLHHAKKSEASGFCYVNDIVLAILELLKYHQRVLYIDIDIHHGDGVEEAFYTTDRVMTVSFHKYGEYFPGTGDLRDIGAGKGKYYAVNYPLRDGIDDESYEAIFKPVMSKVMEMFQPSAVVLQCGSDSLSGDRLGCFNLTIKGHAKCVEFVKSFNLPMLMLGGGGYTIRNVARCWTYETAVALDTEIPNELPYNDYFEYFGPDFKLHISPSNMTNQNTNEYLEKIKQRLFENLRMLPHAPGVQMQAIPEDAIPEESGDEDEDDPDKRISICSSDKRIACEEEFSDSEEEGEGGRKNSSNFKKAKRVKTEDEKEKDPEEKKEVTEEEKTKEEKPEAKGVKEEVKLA
Procedure: FIG. 2 illustrates the capacity of the different compounds of 600 nM to inhibit HDAC activity from HELA nuclear extract and from HDAC-recombinant proteins (HDAC 1, HDAC 3, HDAC 6, HDAC 8).
HDAC inhibitory activity was determined by a fluorimetric HDAC assay kit (Active-motif, Belgium), according to manufacturer's instructions. Briefly, 30 μL of HeLa nuclear extract were mixed with 5 μL of 10× compound to be tested and 10 μL of assay buffer. Fluorogenic substrate (10 μL) was added, reaction was allowed to proceed for 30 min at room temperature, then stopped by the addition of a developer containing Tichostatin A. Fluorescence was monitored after 30 min at excitation and emission wavelengths of 360 and 460 nm, respectively. […].

type I RH-YFP parasites = assay: RH-YFP type I Toxoplasma proliferation in HFF; type: cell-based, Toxoplasma gondii; conditions: 0.025 to 0.8 uM, 24 h
Procedure: as §3, §4

recombinant HDAC 8 = target: T3, recombinant HDAC 8 (Homo sapiens, UniProt Q9BY41); assay: Recombinant HDAC8 inhibition; type: biochemical
T3 sequence (Q9BY41 1-377): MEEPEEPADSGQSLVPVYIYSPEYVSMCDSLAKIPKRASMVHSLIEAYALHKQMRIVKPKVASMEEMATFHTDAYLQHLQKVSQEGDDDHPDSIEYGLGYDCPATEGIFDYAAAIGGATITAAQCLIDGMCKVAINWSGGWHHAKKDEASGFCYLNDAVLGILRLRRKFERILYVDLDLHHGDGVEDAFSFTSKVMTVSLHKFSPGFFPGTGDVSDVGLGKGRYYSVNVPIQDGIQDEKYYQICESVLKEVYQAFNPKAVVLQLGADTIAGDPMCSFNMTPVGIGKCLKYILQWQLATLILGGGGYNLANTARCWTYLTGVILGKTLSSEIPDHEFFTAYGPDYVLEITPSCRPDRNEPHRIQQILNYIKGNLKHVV

Babesia = Babesia proliferation; type: cell-based
[6] = system: deacetylase activity in total protein extracts of T. gondii; assay: Deacetylase activity in total protein extracts of T. gondii; type: biochemical; conditions: 125 nM
[7] = system: T4, HDAC activity from HELA nuclear extract; assay: Fluorimetric HDAC assay, HeLa nuclear extract; type: biochemical, human; conditions: 600 nM; HELA nuclear extract and HDAC-recombinant proteins
T4 construct: other: 600 nM; HELA nuclear extract and HDAC-recombinant proteins
Procedure: as §2

recombinant HDAC3 = recombinant HDAC3 (Homo sapiens, UniProt O15379); assay: Recombinant HDAC3 inhibition; type: biochemical
Sequence of recombinant HDAC3 (O15379 whole entry): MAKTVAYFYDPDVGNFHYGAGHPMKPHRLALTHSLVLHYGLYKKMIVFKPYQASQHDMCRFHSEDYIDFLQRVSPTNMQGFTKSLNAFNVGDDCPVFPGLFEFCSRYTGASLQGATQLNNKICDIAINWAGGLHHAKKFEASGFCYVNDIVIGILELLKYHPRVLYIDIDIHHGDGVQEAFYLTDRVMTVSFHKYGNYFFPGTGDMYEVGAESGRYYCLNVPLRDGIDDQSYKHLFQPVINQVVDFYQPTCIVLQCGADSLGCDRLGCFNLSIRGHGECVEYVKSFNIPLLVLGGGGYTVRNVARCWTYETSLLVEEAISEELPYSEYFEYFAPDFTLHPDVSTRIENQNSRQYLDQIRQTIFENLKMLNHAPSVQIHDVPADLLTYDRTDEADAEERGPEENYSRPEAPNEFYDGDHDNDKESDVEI
Sequence of recombinant HDAC3 (Q9Y618 395-489 partner limits assumed): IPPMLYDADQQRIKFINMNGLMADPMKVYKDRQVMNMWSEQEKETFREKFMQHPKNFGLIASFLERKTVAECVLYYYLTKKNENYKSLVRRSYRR

[8] = HeLa nuclear extract, fluorimetric HDAC kit, read-out: HELA Nuclear extracts IC50
[9] = Toxoplasma gondii, Fibroblast, read-out: T. gondi IC50, HFF infected, 24 h
[10] = text summary of Table 1, less active compounds, read-out: HDAC inhibitory activity against HeLa cell nuclear extract
[11] = Toxoplasma gondii, Fibroblast, HFF infected, read-out: T. gondi IC50

Compound | IS Selectivity index LD50 (HFF)/IC50 T. gondii (HFF cells) | HFF LD50 (HFF cells; human) [µM] | IS Selectivity index LD50 (THP-1)/IC50 T. gondii (THP-1 cells) | THP-1 LD50 (THP-1 cells; human) | IC50 [2, 8] [µM] | IC50 [4, 11] [µM] | other results
Cc1nc(-c2ccc(C(=O)NCc3ccc(C(=O)NO)cc3)cc2)cs1 [Compound 360] | 4.5 | 22.6 ± 9.5 | 0.4 | 2.2 ± 0.5 µM | 0.399 |  | IC50 ([1]; antiparasitic activity): > 60 µM; IC50 [3]: 2.2 µM
Cc1nc(-c2ccc(C(=O)Nc3ccc(C(=O)NO)cc3)cc2)cs1 [Compound 361] | 1.5 | 25.0 ± 4.0 | 25 | >400 µM | 1.82 |  | IC50 [1]: > 60 µM; IC50 [4, 9]: > 10 µM; IC50 [2, 10]: ~1 µM
O=C(NO)c1ccc(NS(=O)(=O)c2cccc(F)c2)cc1 [Compound 351] | 2.3 | 116.5 ± 35 | 1.53 |  | 0.881 |  | IC50 [4, 9]: 50 µM
O=C(NO)c1ccc(CNS(=O)(=O)c2cccc(F)c2)cc1 [Compound 350] | 7.5 | 300.0 ± 50.0 | 10 | >400 µM | 8.61 | 40 | IC50 [2, 10]: ~1 µM
O=C(NO)c1ccc(CNC(=O)c2cccc(F)c2)cc1 [Compound 345] | 11.6 | 58.3 ± 1.2 | 0.3 | 1.7. +/− 0.5 μM | 0.866 | < 10 | anti-leishmanial activity, in words [1]: anti-leishmanial; anti-toxoplasma activity, in words [4]: anti-toxoplasma activity; IC50 ([4]; read-out: T. gondi IC50, HFF infected): 5 µM; IC50 [3]: 1.7 µM
COc1ccccc1CNC(=O)c1ccc(C(=O)NO)cc1 [Compound D16, reference compound] |  |  |  |  | 7.74 |  | IC50 (recombinant HDAC6): 0.198 µM; inhibitory activity on type II Prugniaud parasites proliferation, in words [5]: no inhibitory activity; inhibitory activity on type II Prugniaud parasites proliferation, in words ([5]; listed as Dl6): lack of inhibitory effect; IC50 (recombinant HDAC1; read-out: IC50 recombinant HDAC 1): > 10 µM; inhibitory activity on type I RH-YFP parasites proliferation, in words (type I RH-YFP parasites): lack of inhibitory effect; also recorded: no inhibitory activity
O=C(CCCCCCC(=O)Nc1ccccc1)NO [SAHA, suberoylanilide hydroxamic acid, reference compound] |  |  |  |  |  |  | THP-1 LD50 (THP-1 cells; MTT cytotoxicity): >200 µM
O=C(NO)c1ccccc1 [ST3, hydroxybenzamide, reference compound] |  |  |  |  |  |  | HFF LD50 (HFF cells; MTT cytotoxicity): >400 µM; IC50 [1]: 29.3 µM; IC50 [4, 9]: > 50 µM
COc1cccc(CC(=O)Nc2ccc(C(=O)NO)cc2)c1 [Compound 363] | 300 | 105 ± 10.5 | 10.3 | 3.6 ± 0.5 µM | 0.085 |  | IC50 (recombinant HDAC 8): 0.863 µM; IC50 (Babesia): ~1 µM; IC50 (recombinant HDAC6): 0.045 µM; inhibitory activity on type II Prugniaud parasites proliferation, in words [5]: potent inhibitory effect; also recorded: potent inhibitory activity; inhibitory effect on deacetylase activity of T. gondii extracts, in words [6]: strong inhibitory effect; inhibition of T. gondii deacetylase activity ([6]; total protein extracts): 44%; inhibition of human HDAC activity (FIG. 2), in words [7]: most potent inhibitor; IC50 [3]: 3.6 µM; IC50 (recombinant HDAC3): 0.16 µM; IC50 (recombinant HDAC1): 0.257 µM
COc1cccc(CC(=O)NCc2ccc(C(=O)NO)cc2)c1 [Compound 362] | >8 | >400 | 0.5 | 30.5 ± 3.0 µM | 0.518 | 52.5 | 
O=C(NO)c1ccc(NC(=O)c2cccc(F)c2)cc1 [Compound 349] |  | >400 |  | 264 ± 8.0 µM | 0.633 | > 50 | 
